This passage reports cytotoxicity results from ChEMBL document CHEMBL3507680, “University of Dundee, Gates Library screen for HepG2 cell viability”.

The structures appear in SMILES notation.

The series in a line: Human HepG2 cell viability assay in 384 well format. In kind it is toxicity, cell-based. The arrangement: dose 125 nL, time 70.5 hour; cytotoxicity at 70.5 h: concentration not given beside the values. Conditions: HepG2 cells, read-out: Inhibition.
For the compound `COc1c(CNCCC(=O)NC2CCCCC2)c(C(C)C)nn1C`, the cytotoxicity at 70.5 h was -0.685%.

Take `CCC1c2cccn2CCN1C(=O)c1ccc2nonc2c1` (stereo not given): the cytotoxicity at 70.5 h is -2.25%.

As for `CC(C)OCCC(=O)NCCC(=O)N1CCN(c2ccccn2)CC1`, the cytotoxicity at 70.5 h was -3.84%.

Consider `O=C1CCC(=O)N1c1nn(Cc2cccc(F)c2)cc1Cl`, for which the cytotoxicity at 70.5 h is -0.348%.

As for `COCC1c2c(cnn2CC2CC2)CCN1Cc1cc(C)on1` (stereo not given), the cytotoxicity at 70.5 h is -12.7%.

With `CCc1ncc2c(n1)CN(C(=O)COC)C2`, the cytotoxicity at 70.5 h was -4.18%.

Regarding `c1cncc(CNCc2cccs2)c1`, the cytotoxicity at 70.5 h came to 26%.

On to `CN(C)S(=O)(=O)N1CC[C@]2(C[C@@H](OCC3CC3)CO2)C1`, for which the cytotoxicity at 70.5 h amounted to 0.733%.

Turning to `Cc1cc(C)n(C2CN(CCC(=O)NC3CCCCC3)C2)n1`, the cytotoxicity at 70.5 h was -4.9%.

`CCc1nc(CN(C)C2CCN(CC(=O)N3CCOCC3)C2)no1` (stereo not given): the cytotoxicity at 70.5 h is -1.36%.

On to `CN1CCC(c2ncc3c(n2)CCN(C(=O)CC2C=CCC2)C3)CC1` (stereo not given), for which the cytotoxicity at 70.5 h is -7.45%.

`CC(C)CN(CC(O)c1ccc(F)cc1)C(=O)c1cnsn1` (stereo not given): the cytotoxicity at 70.5 h was -3.42%.

Consider `CS(=O)(=O)N1CCCC(Cc2cncc(-c3ccccc3C(=O)O)n2)C1` (stereo not given), for which the cytotoxicity at 70.5 h is -12.4%.

`Cc1ncc(C(=O)N2CC[C@@]3(O)CCN(C4CCCCC4)C[C@H]3C2)cn1`: the cytotoxicity at 70.5 h is -7.37%.

As to `CN(Cc1ccc(Cl)s1)C(=O)NCCC(=O)N1CCCCCC1`, the cytotoxicity at 70.5 h was -4.9%.

For `OC(CN1CCC(CNCc2ccccn2)CC1)c1ccccc1` (stereo not given), the cytotoxicity at 70.5 h was found to be 1.35%.

On to `O=C(Nc1cnc(C2CC2)nc1)N1CCCC1`, for which the cytotoxicity at 70.5 h was -1.33%.

Regarding `COCC(C)NC(=O)NCCCc1cc(N)n(-c2ccccc2)n1` (stereo not given), the cytotoxicity at 70.5 h is -108%.

Regarding `CC(SCCS(C)(=O)=O)c1nc(Cc2ccccc2)no1` (stereo not given), the cytotoxicity at 70.5 h was -7.83%.

In the case of `Cc1cc(-c2cnn(CCNC(=O)CCn3cccn3)c2C2CC2)on1`, the cytotoxicity at 70.5 h was -3.81%.

For the compound `CC(C)c1ncc(Cl)c(C(=O)N2CCN(C3CC3)CC2)n1`, the cytotoxicity at 70.5 h is -7.86%.

With `CC1(C)CNC(=O)c2nc(CCCN3CCCC3)[nH]c2C1`, the cytotoxicity at 70.5 h is -8.44%.

In the case of `COc1cc(C(=O)N(Cc2ccco2)C2CC2)cc(OC)c1OC`, the cytotoxicity at 70.5 h is 23.7%.

In the case of `COc1cc(CCC(=O)N2CCC(c3cncc(C)n3)CC2)on1`, the cytotoxicity at 70.5 h was -3.99%.

In the case of `CCOCCN1CCC(C(=O)c2cc(F)ccc2F)CC1`, the cytotoxicity at 70.5 h was 17.7%.

Consider `Cn1cccc1CNC(=O)CCCc1nnc2ccccn12`, for which the cytotoxicity at 70.5 h was -3.22%.

Take `O=C(CC1CC1)N1Cc2nccn2CC(COc2cccnc2)C1` (stereo not given): the cytotoxicity at 70.5 h is -14.7%.

`CC(C)NC1CCN(CCc2ccc3c(c2)CCO3)CC1`: the cytotoxicity at 70.5 h is 9.93%.

On to `O=C(c1cccs1)N1CCC2(CC1)CCN(S(=O)(=O)C1CC1)CC2`, for which the cytotoxicity at 70.5 h was -11.7%.

Regarding `N#Cc1cc(N2CCC(CS(N)(=O)=O)CC2)nc2ccccc12`, the cytotoxicity at 70.5 h came out at 1.54%.

Take `CC(C)C1CN(C(=O)Nc2cnn(CC(F)F)c2)CCS1` (stereo not given): the cytotoxicity at 70.5 h is 5.93%.

As to `Fc1cnc(N2CC[C@@H]3OC(COCc4cccnc4)CC[C@@H]32)nc1` (stereo not given in full), the cytotoxicity at 70.5 h is -4.57%.

For `COc1c(CNC2CCSc3ccc(F)cc32)c(C)nn1C` (stereo not given), the cytotoxicity at 70.5 h amounted to 25.9%.

For `COc1cc(C(=O)N2CC[C@@H](NC(=O)c3ccccn3)[C@H](O)C2)ccn1`, the cytotoxicity at 70.5 h is -9.28%.

In the case of `CCS(=O)(=O)c1ncc(CN(C)Cc2cccc(OC)c2)n1CCOC`, the cytotoxicity at 70.5 h was -6.87%.

On to `C=Cc1ccc(CN2CCCC3(CNC(=O)c4ccccc4O3)C2)cc1` (stereo not given), for which the cytotoxicity at 70.5 h was 8.95%.

In the case of `CC(=O)NCCn1ccnc1-c1cccc(C(C)N(C)C)c1` (stereo not given), the cytotoxicity at 70.5 h worked out at 5.57%.

Regarding `COCCCC1CCCCN1Cc1cn2cc(C)ccc2n1` (stereo not given), the cytotoxicity at 70.5 h is -25.8%.

Take `CCn1cc(NC(=O)NCC(O)COc2ccccc2)cn1` (stereo not given): the cytotoxicity at 70.5 h is -7.02%.

For `CCC(O)Cn1nc(-c2ccc(C(=O)O)cc2)cc1-c1cccc(F)c1` (stereo not given), the cytotoxicity at 70.5 h came out at 20.1%.

As to `COc1ncccc1NC(=O)N1CCC(CNC(C)=O)CC1`, the cytotoxicity at 70.5 h was -7.14%.

For `Cn1cc(CN(Cc2ccccn2)Cc2ccccc2Cl)cn1`, the cytotoxicity at 70.5 h was -1.3%.

In the case of `O=C(Nc1ccccc1OCCc1ccccn1)N1CCOCC1`, the cytotoxicity at 70.5 h was -13.5%.

For `CC(C(=O)NCc1cn2cc(Br)ccc2n1)S(C)(=O)=O` (stereo not given), the cytotoxicity at 70.5 h was -5.34%.

With `CC(C)N(C)S(=O)(=O)N(Cc1cccs1)CC1CCCO1` (stereo not given), the cytotoxicity at 70.5 h amounted to 37.4%.

As to `CNC(=O)Cc1nc(CNc2ccc(SC)c(F)c2)cs1`, the cytotoxicity at 70.5 h is -0.256%.

Regarding `Cc1ccc(-n2nnc(C(=O)NCC3CCCCC3)n2)cc1`, the cytotoxicity at 70.5 h was -7.05%.

`Cc1noc(C2CCN(C(=O)c3cccs3)CC2)n1`: the cytotoxicity at 70.5 h is -9.06%.

Consider `Cn1cnc2c1C(COCC1CC1)CN(c1ncccn1)C2` (stereo not given), for which the cytotoxicity at 70.5 h stood at 2.85%.

Consider `N#Cc1ccc(S(=O)(=O)N2CC(CC(=O)O)c3ccccc32)cc1` (stereo not given), for which the cytotoxicity at 70.5 h is -3.42%.

As to `Cc1nn(C)c(C)c1C1CCCN1C(=O)c1cnc2onc(C)c2c1` (stereo not given), the cytotoxicity at 70.5 h was -7.3%.

For `Cc1cc(CN2CCC(c3cc(Cc4ccccc4)n[nH]3)CC2)[nH]n1`, the cytotoxicity at 70.5 h was -16.6%.

As to `CCn1ncc2c1CN(C(=O)c1cc(C)oc1C)CC2COC` (stereo not given), the cytotoxicity at 70.5 h was -0.428%.

On to `Cc1ccc(CCNC(=O)CC2COCCN2S(=O)(=O)N(C)C)s1` (stereo not given), for which the cytotoxicity at 70.5 h was -11%.

For the compound `Cc1ccccc1SCC(=O)N[C@H]1CC[C@H](n2cnnc2)CC1`, the cytotoxicity at 70.5 h is -5.74%.

`COc1cc(OC)cc(N2CCC(NC(=O)c3ccc[nH]3)CC2)c1`: the cytotoxicity at 70.5 h was -7.63%.

As to `CC(C)CC(=O)NCC(O)c1c(F)cccc1F` (stereo not given), the cytotoxicity at 70.5 h is -7.25%.

`O=C(NCc1ccccc1F)NC1CCCN(c2ncccn2)C1` (stereo not given): the cytotoxicity at 70.5 h is -4.69%.

Take `COc1cccc(CNC(=O)c2cccnc2SC(C)C)c1`: the cytotoxicity at 70.5 h was -5.9%.

As to `Cc1n[nH]c(C2CN(C(=O)c3ccon3)CCO2)n1` (stereo not given), the cytotoxicity at 70.5 h was -10.2%.

As to `Cc1cc(C)n(C2CN(CC(=O)N(C)Cc3ccco3)C2)n1`, the cytotoxicity at 70.5 h was -6.63%.

`COc1ccc(CCN2CCCC(CN(C)Cc3[nH]cnc3C)C2)cc1` (stereo not given): the cytotoxicity at 70.5 h worked out at 1.62%.

`CN(C)Cc1cnc2n1CCN(Cc1ccsc1)CC2`: the cytotoxicity at 70.5 h is -2.43%.

As to `CC(C)(C)OC(=O)Cn1cccc(S(=O)(=O)N2CCCCCC2)c1=O`, the cytotoxicity at 70.5 h is -12.4%.

In the case of `CCOc1ccc(-c2cc(=O)n3c(n2)CCCCC3)cc1`, the cytotoxicity at 70.5 h is -5.56%.

For the compound `CN(CCN1CCOCC1)S(=O)(=O)CC1CCCC1`, the cytotoxicity at 70.5 h was -0.906%.

`Cc1cc(C)c(CNC(=O)NCC(O)c2cccc(F)c2)c(=O)[nH]1` (stereo not given): the cytotoxicity at 70.5 h is -3.53%.

As to `c1ccc(-c2cc(CN3CCCCCC3c3ccco3)on2)nc1` (stereo not given), the cytotoxicity at 70.5 h is -4.66%.

As to `Cn1cnnc1-c1ccnc(NCc2ccccc2)c1`, the cytotoxicity at 70.5 h was -6.07%.

Take `CC(=O)NCc1ccc(C(=O)N2CCCCC2Cn2cccn2)o1` (stereo not given): the cytotoxicity at 70.5 h came out at 8.35%.

For the compound `O=C(c1cocn1)N1C[C@@H]2CN(Cc3ccco3)CCO[C@@H]2C1`, the cytotoxicity at 70.5 h is -9.1%.

`Cc1ccc(O)c(C(=O)N2CCC(CNC(=O)OC(C)(C)C)C2)c1` (stereo not given): the cytotoxicity at 70.5 h is -7.45%.

On to `CC(C)(C)CC(=O)NC[C@H]1OC[C@@H](NC2CCC(F)(F)CC2)[C@@H]1O`, for which the cytotoxicity at 70.5 h was -5.07%.

For `CCCNc1ncc(CN2C[C@H]3CC[C@@H]2CN(C2CCOCC2)C3)cn1`, the cytotoxicity at 70.5 h worked out at 2.68%.

As to `Fc1cnc(N2CCCC3(COCCN(c4nccs4)C3)C2)nc1` (stereo not given), the cytotoxicity at 70.5 h is -12.2%.

In the case of `COc1cccc(S(=O)(=O)CCN2CCCN(C(C)=O)CC2)c1`, the cytotoxicity at 70.5 h stood at 0.259%.

As for `O=C(COCc1ccccc1Cl)Nc1ccnn1CC1CCOC1` (stereo not given), the cytotoxicity at 70.5 h is -18.3%.

Consider `CNS(=O)(=O)c1ccsc1C(=O)OC`, for which the cytotoxicity at 70.5 h is -5.92%.

Regarding `COc1ccc(C(C(=O)O)N2CCCN(C3CCCC3)CC2)cc1OC` (stereo not given), the cytotoxicity at 70.5 h came to 18.5%.

For `O=C(CNc1ccccc1S(=O)(=O)C(F)F)NCc1ccco1`, the cytotoxicity at 70.5 h is -5.76%.

With `CCCC(=O)N1CCC2(CC1)COC2`, the cytotoxicity at 70.5 h is -7.56%.

Turning to `Cc1cc(NC(=O)N2CCOCC2)nn1-c1ccccc1Cl`, the cytotoxicity at 70.5 h is -5.4%.

Consider `NC(=O)N1CCc2ncc(CNC(=O)CC3CC3)n2CC1`, for which the cytotoxicity at 70.5 h was 1.82%.

For the compound `O=C(c1ccc(F)c(F)c1)N1C[C@H]2CNC[C@H]2C1`, the cytotoxicity at 70.5 h was -11.5%.

As to `COCCNC(=O)C[C@@H]1COC[C@H]2CN(C(=O)C3CCOCC3)C[C@@H]12`, the cytotoxicity at 70.5 h was 1.49%.

Take `CCc1nc2n(n1)CCCC2NC(=O)Nc1ccc(SC)c(F)c1` (stereo not given): the cytotoxicity at 70.5 h is -6.66%.

Consider `CNS(=O)(=O)c1ccc(CNC(=O)Nc2ccccn2)s1`, for which the cytotoxicity at 70.5 h came to 3.18%.

Regarding `O=C(c1cc(Cl)c2c(c1)OCO2)N1CCN(c2ncccn2)CC1`, the cytotoxicity at 70.5 h was 30.1%.

For the compound `CCS(=O)(=O)N1CCC2(CN(C(=O)c3cn(C)cn3)C2)C1`, the cytotoxicity at 70.5 h is 8.36%.

As to `Cc1cc(C(=O)Nc2cnn(CC(=O)NC3CCCC3)c2)c(C)s1`, the cytotoxicity at 70.5 h is -6.94%.

`Cc1ncsc1CN1CC(C)(C2CC2)CC1=O` (stereo not given): the cytotoxicity at 70.5 h was -12.2%.

`O=C(NCC1CC1)[C@@H]1CC[C@@H]2[C@@H](CCN2Cc2ccco2)O1`: the cytotoxicity at 70.5 h turned out to be 1.26%.

For the compound `COc1ccc(F)c(NCC(C)(C)S(C)(=O)=O)c1`, the cytotoxicity at 70.5 h is -4.68%.

As to `Cc1nc(O)cc(C2CCN(C(=O)C(C)Cn3nc(C)nc3C)CC2)n1` (stereo not given), the cytotoxicity at 70.5 h was -4.5%.

`Cc1nc(N2CCCC2)nc(C)c1NS(=O)(=O)c1ccccc1F`: the cytotoxicity at 70.5 h was -1.28%.

As to `Cc1ccc(CN(CCCN2CCOCC2)Cc2cnc(C)n2C)o1`, the cytotoxicity at 70.5 h was determined as 12.4%.

Regarding `Cc1nc2cc(OCc3nc(C(=O)NC(C)(CO)CO)co3)ccc2s1`, the cytotoxicity at 70.5 h was found to be 6.62%.

`O=C(C1CCCC1)N1C[C@@H]2CCN(c3cccnc3)C[C@@H]2C1`: the cytotoxicity at 70.5 h was -11.4%.

For the compound `O=C(NC(Cc1ccsc1)c1nccs1)C1CC1` (stereo not given), the cytotoxicity at 70.5 h is -6.11%.

For `O=C(CN1CCS(=O)(=O)CC1)NC1CCOc2ccccc21` (stereo not given), the cytotoxicity at 70.5 h is -3.04%.
